For data set [1], the target named is 5-HT2A receptor (Homo sapiens (Human), UniProt P28223). The experiment in a line: Radioligand competition binding, affinity for 5-HT2A receptor ([3H]-ketanserin). To be noted: for binding selectivity, dopamine D2 receptor versus 5-HT2A receptor: Table 3 compared with Table 1; for Ki: [3H]-ketanserin, HEK-293T membranes. Here is the method:
The affinity of the compounds of the present invention for the 5-HT2A receptors was determined by the method of radioligand competition experiment. In the first step, a cell membrane component containing specific 5-HT2A receptor was prepared. A 10 cm dish was used for transfection with 10 ng of the 5-HT2A receptor and 40 μL of PEI. […] A vacuum pump was used to suck off the culture medium, 3 mL of lysis buffer was added to each well, and the cells were placed in a 4° C. freezer for 10 minutes. After the cells were detached, the cells were transferred to a 15 mL centrifuge tube and centrifuged at 1500 rpm for 5 minutes at 4° C., and the supernatant was discarded. The cell pellet was transferred to a tissue homogenizer, and 3 mL of lysis buffer was added and fully ground until the cells were broken. Then, cell suspension was equally divided into several EP tubes, centrifuged at 4° C. and 12000 rpm for 5 min, and the supernatant was discarded. The precipitate was the cell membrane component containing the 5-HT2A receptor. […] First, a standard binding buffer was added to the cell membrane component containing the 5-HT2A receptor, and the cell membrane was disrupted and resuspended with an electric tissue homogenizer. 30 μL of membrane protein suspension was added to each well of a 96-well plate. Then, 30 μL of different drugs were added to the 96-well plate from left to right to ensure that the final drug concentrations were 10^−5 M, 10^−6 M, 10^−7 M, 10^−8 M, 10^−9 M and 0 M, with two replicates per treatment. Next, 30 μL [^3H]-ketanserin was added to each well of the 96-well plate. The plate was incubated for 2 hours at room temperature in the dark. Detection. The machine reading value reflected the amount of [^3H]-ketanserin bound on the membrane, and after further data processing, the affinity Ki value of different compounds for 5-HT2A receptor was obtained.
(Loss of bound radioactivity is the signal in a displacement assay; it reports binding, not function.)

Data set [2] can be described thus: Pharmacokinetic properties in C57 male mice, single dose (plasma, LC-MS/MS). To be noted: for AUC(0-inf): read-out: Area under the drug-time curve AUC0-inf; for AUC(0-t): read-out: Area under the drug-time curve AUC0-t; for MRT: read-out: Mean residence time MRTPO; for half-life: read-out: Terminal elimination half-life t1/2 (converted); for bioavailability: read-out: Bioavailability F; for Cmax: read-out: Drug peak concentration Cmax; for Tmax: read-out: Time to peak tmax. The format is in vivo. Here is the method:
1. Test of the pharmacokinetic properties of compound (−)-I-10 administered to C57 male mice by single intragastric administration, intraperitoneal injection and intravenous injection
Compound (−)-I-10 was administered in a single dose in C57 male mice, and then blood samples were collected at different time points, the concentration of the compound in mouse plasma was determined by LC-MS/MS and the relevant pharmacokinetic parameters were calculated to investigate the pharmacokinetics of the compound in the mice.
27 male C57 mice were provided by Suzhou Zhaoyan Experimental Animal Co., Ltd., and the experiment was carried out according to Table 4 below.
0.030 mL of blood was taken from each animal through the orbit each time and anticoagulated with EDTA-K2, and the collection time points were: 0, 5, 15, 30 min, 1, 2, 4, 6, 8, 24 h after administration of the test substance. Blood samples were placed on ice after collection, and the plasma was separated by centrifugation within 30 minutes (centrifugation conditions: 5000 rpm, 10 minutes, 4° C.) and stored at −80° C. until analysis.
Data acquisition and control system software was Analyst 1.5.1 software (Applied Biosystem). The sample peak integration method of the spectrum was automatic integration; the ratio of the peak area of the sample to the peak area of the internal standard was used as an index, and regression was performed with the concentration of the sample. Regression method: linear regression with a weight factor of 1/X2. Pharmacokinetic parameters were analyzed using WinNonlin Professional v6.3 (Pharsight, USA) using non-compartmental models. Cmax was the measured maximum drug concentration in blood, the area under the drug concentration in blood-time curve AUC (0→t) was calculated by the trapezoidal method, and Tmax was the time to peak of the drug concentration in blood after administration. The experimental data were expressed by “mean=standard deviation” (Mean±[…], n≥3) or “mean” (Mean, n=2).

Data set [3] concerns C57B6 male mice. Kind of data set: Old and novel object recognition, MK801 recognition impairment model. The format is in vivo. To be noted: for Distinguishing index (DI): MK801 (0.3 mg/kg) 14 injections in 7 days, 7 days recovery. The protocol:
The experimental animals were C57B6 male mice, n=8 in each group. Firstly, mice were intraperitoneally injected with MK801 at 0.3 mg/kg twice a day for seven consecutive days to establish a recognition impairment model, and control mice were intraperitoneally injected with normal saline containing the same amount of DMSO. The mice then underwent a seven-day recovery in home cages. After the recovery period expired, the old and novel object distinguishing experiment was performed on the mice to determine the effect of the compounds on the recognition ability of the mice.
Novel and old object recognition experiment: The experiment was carried out in a low-light environment. Before the experiment started, the mice were placed in the experimental field in advance and adapted to the environment for one hour in the low-light environment. After environmental adaptation, the mice were administered intraperitoneally. 30 minutes after the administration, the mice were put in an open field (diameter of the open field of 40 cm) in which two identical objects had been placed beforehand. The mice explored freely in the open field for 10 minutes, and then were removed from the open field and returned to the cage. After a one-hour interval, the mice returned to the open field, where an old object and a novel object were placed in advance in the same position in the open field. Again, the mice explored freely in the open field for 10 minutes. The distinguishing time of the mice for the old object and the novel object was recorded separately and the distinguishing index was calculated. The calculation method of the distinguishing index was (exploration time for novel object−exploration time for old object)/(exploration time for novel object+exploration time for old object). Object exploration by the mice was defined as sniffing, climbing, and direct contact with the object. Data statistics were carried out using Student-t-test, p<0.05 was *, p<0.01 was **, p<0.001 was ***, p<0.0001 was ****.

The mark [4] stands for this setting: mouse, plasma, intravenous injection 1 mg/kg.
Setting [5] is: mouse, plasma, ip, intraperitoneal injection 1 mg/kg.
The mark [6] stands for this setting: mouse, plasma, oral administration 5 mg/kg.

Like-named read-outs stand apart in the source and are kept apart here.

Chain of 5-HT2A receptor (P28223 whole entry): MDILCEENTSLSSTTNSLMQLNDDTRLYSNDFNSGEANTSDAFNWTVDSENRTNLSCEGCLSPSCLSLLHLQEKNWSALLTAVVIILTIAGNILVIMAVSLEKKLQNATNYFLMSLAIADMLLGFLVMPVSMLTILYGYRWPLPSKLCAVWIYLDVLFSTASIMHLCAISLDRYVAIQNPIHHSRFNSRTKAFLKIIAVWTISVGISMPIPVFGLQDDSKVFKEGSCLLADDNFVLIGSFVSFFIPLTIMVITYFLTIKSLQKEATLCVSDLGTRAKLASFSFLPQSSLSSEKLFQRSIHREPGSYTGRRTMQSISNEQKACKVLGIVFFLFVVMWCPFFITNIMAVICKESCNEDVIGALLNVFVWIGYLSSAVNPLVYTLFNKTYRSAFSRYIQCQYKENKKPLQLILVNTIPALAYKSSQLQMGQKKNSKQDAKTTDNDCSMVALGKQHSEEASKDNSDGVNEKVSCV

For orientation: Ki means a measure of affinity in units of concentration, obtained from inhibition or displacement. Read a low Ki as a stronger hold on the target. The clearance is the volume of plasma or blood freed of the substance per unit of time. By bioavailability is commonly meant dose-corrected exposure relative to a reference, in per cent. In general, Tmax refers to the time from dosing to the highest level. For the compound `CN(C)C(=O)N[C@H]1CC[C@H](CCN2CCN3c4cccc5[nH]cc(c45)C[C@H]3C2)CC1` [(−)-I-10], in data set [1], the “affinity for 5-HT2A receptor (in words)” value was “very weak affinity”; the “binding selectivity, dopamine D2 receptor versus 5-HT2A receptor” value (shortened to “binding selectivity”) is recorded as “more than 100 times”; the affinity, expressed as Ki, was 2630 nM. Also, the “pharmacokinetic properties (in words)” value in data set [2] is given as “good pharmacokinetic properties”. In addition, the “Terminal elimination rate Kel” value in data set [2] (intraperitoneal injection 1 mg/kg) amounted to 0.886 h⁻¹. Also, the “Terminal elimination rate Kel” value in data set [2] (intravenous injection 1 mg/kg) is 0.805 h⁻¹. Further, the Vd in data set [2] (mouse, plasma, intravenous injection 1 mg/kg, read-out: Apparent volume of distribution Vdss) was 4.86 L/kg. Besides, in data set [2] (setting [4]), the AUC(0-inf) is 215 ng·h/mL, the AUC(0-t) was found to be 211 ng·h/mL, the MRT came out at 62.4 min and the half-life is 51.7 min. Also, in data set [2] (mouse, plasma, intravenous injection 1 mg/kg, read-out: Clearance CL), the clearance is 77.6 mL/min/kg. In data set [2] (setting [5]), the AUC(0-inf) came out at 175 ng·h/mL, the AUC(0-t) amounted to 172 ng·h/mL, the bioavailability is 81.4% and the Cmax stood at 271 ng/mL. Further, in data set [2] (setting [5]), the MRT came to 46.2 min, the half-life was 46.9 min and the Tmax came out at 5 min. Further, in data set [2] (setting [6]), the AUC(0-inf) is 596 ng·h/mL, the AUC(0-t) came out at 591 ng·h/mL, the bioavailability came to 55.9% and the Cmax is 558 ng/mL. In addition, in data set [2] (setting [6]), the MRT came out at 89.4 min, the half-life is 69 min and the time to peak (Tmax) worked out at 5 min. Further, the “Terminal elimination rate Kel” value in data set [2] (oral administration 5 mg/kg) worked out at 0.604 h⁻¹. For the same compound, the “improvement of MK801-induced recognition impairment (in words)” value in data set [3] (0.1 mg/kg and 0.025 mg/kg) was “significantly improve”. In data set [3] (0.00625 mg/kg), the “Distinguishing index (DI)” value is listed as 0.05971 ± 0.03658. Moreover, the “Distinguishing index (DI)” value in data set [3] (0.025 mg/kg) turned out to be 0.3320 ± 0.06367. Moreover, the “Distinguishing index (DI)” value in data set [3] (0.1 mg/kg) is listed as 0.2789 ± 0.04036.

In the case of `O=c1ccc2ccc(OCCCCN3CCN4c5cccc6[nH]cc(c56)CC4C3)cc2[nH]1` (racemic) [Compound I-2, 7-(4(4,6,6a,7,9,10-hexahydro-8H-pyrazino[1,2-a]pyrrolo[4,3,2-de]quinolin-8-yl)butoxy)quinolin-2(1H)-one], in data set [1], the “binding selectivity” value is listed as “more than 100 times” and affinity was put at a Ki of 907 nM.

On to `CN(C)C(=O)N[C@H]1CC[C@H](CCN2CCN3c4cccc5[nH]cc(c45)C[C@@H]3C2)CC1` [(+)-I-10], for which, in data set [1], the “affinity for 5-HT2A receptor (in words)” value is reported as “very weak affinity” and the affinity, expressed as Ki, was 2480 nM.

In the case of `O=C1CCc2ccc(OCCCCN3CCN4c5cccc6[nH]cc(c56)CC4C3)cc2N1` (centres unmarked) [Compound I-1, 7-(4(4,6,6a,7,9,10-hexahydro-8H-pyrazino[1,2-a]pyrrolo[4,3,2-de]quinolin-8-yl)butoxy)-3,4-dihydroquinolin-2(1H)-one], in data set [1], the “affinity for 5-HT2A receptor (in words)” value is “very weak affinity”; the “binding selectivity” value is reported as “more than 100 times”; the affinity, expressed as Ki, was 3640 nM.

The values are drawn from patent publication US20240124456A1, “AZA-ERGOLINE DERIVATIVE AND PREPARATION METHOD THEREFOR AND APPLICATION THEREOF” (SHANGHAITECH UNIVERSITY, priority 2021, published 2024).
